Source: patent US11028058B2, “Heterocyclic compounds as adenosine antagonists” (NUVATION BIO INC., priority 2017, dated 2021)
Like-named read-outs stand apart in the source and are kept apart here.

Tests used:
[1] = biological target: HEK-293 cells expressing human recombinant adenosine A2A receptor (Homo sapiens (Human), UniProt P29274); experiment: cAMP assay, Assay 2 (Eu-cAMP tracer / ULight-anti-cAMP); format: cell-based
Procedure: The functional activity of compounds was tested using one of the two assays to detect the present of cAMP. Activation of G-protein coupled receptors (such as A2A) results in activation of adenylcyclase which converts ATP into cAMP which is used as a downstream signaling molecule. Therefore, molecules which act as GPCR (or specifically A2A receptor) antagonists cause a decrease in intracellular cAMP concentration.
Both assays used HEK-293 cells expressing human recombinant adenosine A2A receptor were grown prior to the test in media without antibiotic.
Assay 2 (Table B2-2): 100 nL of test articles at 100× of final concentration were transferred to assay plate by Echo. Cells were washed twice with 5 mL of PBS […]. After aspirating the PBS and adding 1.5 mL versine, cells were incubated at 37° C. for 2-5 min. After centrifugation, 4 mL of medium was added and adjusted cell density to 5,000 cells/well with Stimulation Buffer. 10 μL of cells were aliquoted to the assay plate, centrifuged at 1000 rpm for 1 minute, and incubated for 60 minutes at room temperature. 5 μL 4×Eu-cAMP tracer solution and 5 μL 4×Ulight™-anti-cAMP solution were added to assay plate, followed by centrifugation and 60-minute incubation at room temperature. Plates were read on EnVision.

[2] = biological target: human adenosine A2A membrane preparation (Homo sapiens (Human), UniProt P29274); experiment: Adenosine A2A receptor radioligand binding assay (SPA beads, 3H-SCH 58261, 384 plate); conditions: for inhibition at 3 µM: read-out: A2a binding % inh @ 3000 nM; for inhibition at 0.01 µM: read-out: A2a binding % inh @ 10 nM; for inhibition at 0.1 µM: read-out: A2a binding % inh @ 100 nM; for inhibition at 1 µM: read-out: A2a binding % inh @ 1000 nM; for inhibition at 0.001 µM: read-out: A2a binding % inh @ 1 nM; for IC50: Table B1-2
Procedure: For the A2A adenosine receptor radioligand binding assay, the following modifications were made to the general protocol. GF/C filters (Perkin Elmer, 6005174), presoaked in 0.01% Brij for 2 h at room temperature were used. Filters were washed six times with 0.5 mL of ice-cold washing buffer (50 mM Tris pH 7.4) and 50 μL of Microscint 20 (Packard) was added in each well. The plates were then incubated for 15 min on an orbital shaker and then counted with a TopCount™ for 1 min/well. Another radioligand binding assay was used to evaluate the binding affinity for the adenosine A2A receptor assay was performed in duplicate in the wells of a 384 plate. Assay buffer contained DPBS 500 mM, MgCl2 0.1 mM, and 1% DMSO. Membrane-bead suspension was prepared by mixing 25.98 μL of human adenosine A2A membrane preparation (Perkin Elmer, RBHA2AM400UA) at 33.4 μg/mL, 28 μL of ADA at 20 μg/mL, and 932 μL of SPA beads at 3.33 mg/mL) and incubated the mixture for 20 min at room temperature. Mixed 20 μL of radiotracer (^3H-SCH 58261) at 15 nM to each well containing test articles at various concentrations and centrifuge the plate at 1000 rpm for 1 minute. Added 30 μL of the membraine-bead suspension to each well. Sealed the plates and incubated for 1 hr at room temperature with vigorous mixing on a plate mixer. Plates were read on Microbeta^2 (Perkin Elmer, 2450-0010).

[3] = HEK293, 100 nM, Assay 2, read-out: A2a cAMP % inh @ 100 nM
[4] = HEK293, read-out: A2a cAMP % inh @ 100 nM

human adenosine A2A membrane preparation, sequence (P29274 whole entry): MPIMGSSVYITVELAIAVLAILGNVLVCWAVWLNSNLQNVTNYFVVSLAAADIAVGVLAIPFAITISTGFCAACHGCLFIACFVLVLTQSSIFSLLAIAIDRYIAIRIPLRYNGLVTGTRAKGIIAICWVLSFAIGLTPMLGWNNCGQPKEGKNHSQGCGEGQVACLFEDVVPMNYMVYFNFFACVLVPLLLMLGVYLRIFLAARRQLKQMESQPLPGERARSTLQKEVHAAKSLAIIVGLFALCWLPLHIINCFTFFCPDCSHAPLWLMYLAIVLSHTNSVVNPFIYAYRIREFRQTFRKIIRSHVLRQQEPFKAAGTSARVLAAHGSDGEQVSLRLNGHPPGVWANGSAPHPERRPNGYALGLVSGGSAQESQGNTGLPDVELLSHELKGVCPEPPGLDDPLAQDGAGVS
HEK-293 cells expressing human recombinant adenosine A2A receptor, sequence (P29274 whole entry): as above

Row | SMILES | inhibition at 0.1 µM [1, 3] [%] | inhibition at 3 µM [2] [%] | IC50 ([1]; Assay 2) [nM] | also measured
1 | Cn1ccc(-c2nc(N)cnc2-c2ccc3ncccc3c2)n1 [Compound No. 1.285, 6-(1-methyl-1H-pyrazol-3-yl)-5-(quinolin-6-yl)pyrazin-2-amine] | 34 |  |  | inhibition at 0.01 µM [2]: 56%; inhibition at 0.1 µM [2]: 76%; inhibition at 1 µM [2]: 90%
2 | Cc1ccn(-c2nc(N)cnc2-c2ccc3ncsc3c2)n1 [Compound No. 1.286, 5-(benzo[d]thiazol-6-yl)-6-(3-methyl-1H-pyrazol-1-yl)pyrazin-2-amine] | 20 |  |  | inhibition at 0.001 µM [2]: 40%; inhibition at 0.01 µM [2]: 87%; inhibition at 0.1 µM [2]: 96%; inhibition at 1 µM [2]: 86%
3 | Cn1ccc(-c2nc(N)cnc2-c2ccc3c(=O)[nH]ccc3c2)n1 [Compound 1.315, 6-(5-amino-3-(1-methyl-1H-pyrazol-3-yl)pyrazin-2-yl)isoquinolin-1-ol] |  |  | 1400 | IC50 [2]: 101 nM
4 | Cc1ccn(-c2nc(N)cnc2-c2cc(Cl)c3ncccc3c2)n1 [Compound No. 1.271, 5-(8-chloroquinolin-6-yl)-6-(3-methyl-1H-pyrazol-1-yl)pyrazin-2-amine] |  |  | 50 | IC50 [2]: 2.1 nM
5 | Cn1ccc(-c2nc(N)cnc2-c2cc(Cl)c3[nH]ncc3c2)n1 [Compound 1.304, 5-(7-chloro-1H-indazol-5-yl)-6-(1-methyl-1H-pyrazol-3-yl)pyrazin-2-amine] |  |  | 40 | IC50 [2]: 9 nM
6 | Cc1ncc(-c2nc(N)cnc2-c2cc(Cl)c3ncccc3c2)s1 [Compound 1.318, 5-(8-chloroquinolin-6-yl)-6-(2-methylthiazol-5-yl)pyrazin-2-amine] |  |  | 200 | IC50 [2]: 9.4 nM
7 | Cc1ccn(-c2nc(N)cnc2-c2cc(Cl)c3[nH]ncc3c2)n1 [Compound 1.295, 5-(7-chloro-1H-indazol-5-yl)-6-(3-methyl-1H-pyrazol-1-yl)pyrazin-2-amine] |  |  | 33 | IC50 [2]: 5.5 nM
8 | Nc1cnc(-c2cc(Cl)c3ncccc3c2)c(-n2ccccc2=O)n1 [Compound 1.308, 1-(6-amino-3-(8-chloroquinolin-6-yl)pyrazin-2-yl)pyridin-2(1H)-one] |  |  | > 10000 | IC50 [2]: > 10000 nM
9 | Nc1cnc(-c2ccc3ncccc3c2)c(-c2ccccn2)n1 [Compound No. 1.25, 6-(pyridin-2-yl)-5-(quinolin-6-yl)pyrazin-2-amine] |  | 48 |  | inhibition at 0.1 µM [1, 4]: 6%
10 | Cn1ccc(-c2nc(N)cnc2-c2cc(Cl)c3ncccc3c2)n1 [Compound 1.297, 5-(8-chloroquinolin-6-yl)-6-(1-methyl-1H-pyrazol-3-yl)pyrazin-2-amine] |  |  | 47.9 | IC50 [2]: 17 nM
11 | Cc1ccn(-c2nc(N)cnc2-c2ccc3ncccc3c2)n1 [Compound No. 1.280] | 51 | 75 |  | 
12 | Cc1ncc(-c2nc(N)cnc2-c2ccc3ncccc3c2)s1 [Compound No. 1.288, 6-(2-methylthiazol-5-yl)-5-(quinolin-6-yl)pyrazin-2-amine] |  |  | 1050 | IC50 [2]: 55.5 nM; inhibition at 0.001 µM [2]: 42%; inhibition at 0.01 µM [2]: 83%; inhibition at 0.1 µM [2]: 86%; inhibition at 1 µM [2]: 84%
13 | Cc1ccc(-c2nc(N)cnc2-c2cc(Cl)c3[nH]cnc3c2)o1 [Compound No. 1.45, 5-(7-chloro-1H-benzimidazol-5-yl)-6-(5-methylfuran-2-yl)pyrazin-2-amine] |  | 91 |  | inhibition at 0.1 µM [1, 4]: 100%
14 | Nc1cnc(-c2ccc3ncccc3c2)c(-c2nccs2)n1 [Compound No. 1.279, 5-(quinolin-6-yl)-6-(1,3-thiazol-2-yl)pyrazin-2-amine] | 9 | 58 |  | 
15 | Cn1ccc(-c2nc(N)c(O)nc2-c2cc(Cl)c3ncccc3c2)n1 [Compound 1.310, 3-amino-6-(8-chloroquinolin-6-yl)-5-(1-methyl-1H-pyrazol-3-yl)pyrazin-2-ol] |  |  | 127 | 

More lines, main results first:

Row | inhibition at 0.1 µM [1, 3] [%] | inhibition at 3 µM [2] [%] | IC50 ([1]; Assay 2) [nM] | SMILES | also measured
16 | 60 | 80 |  | N#Cc1nc(-c2ccc3[nH]ncc3c2)c(-c2ccccc2)nc1N [Compound No. 1.274, 3-amino-6-(1H-indazol-5-yl)-5-phenylpyrazine-2-carbonitrile] | 
17 | 44 | 83 |  | N#Cc1nc(-c2cc(Cl)c3[nH]cnc3c2)c(-c2ccccc2)nc1N [Compound No. 1.277, 3-amino-6-(7-chloro-1H-benzimidazol-5-yl)-5-phenylpyrazine-2-carbonitrile] | 
18 | 7 | 11 |  | Nc1nc(-c2ccccc2)c(-c2ccc3ncccc3c2)nc1C(=O)O [Compound No. 1.238, 3-amino-5-phenyl-6-(quinolin-6-yl) pyrazine-2-carboxylic acid] | 
19 | 87 | 83 |  | N#Cc1nc(-c2ccc3ncoc3c2)c(-c2ccccc2)nc1N [Compound No. 1.193, 3-amino-6-(benzo[d]oxazol-6-yl)-5-phenylpyrazine-2-carbonitrile] | 
20 | 100 | 100 |  | Cc1ccc(-c2nc(N)cnc2-c2ccc3ncccc3c2)s1 [Compound No. 1.210, 6-(5-methylthiophen-2-yl)-5-(quinolin-6-yl)pyrazin-2-amine] | 
21 | 93 | 89 |  | N#Cc1nc(-c2ccc3ncsc3c2)c(-c2ccccc2)nc1N [Compound No. 1.192, 3-amino-6-(benzo[d]thiazol-6-yl)-5-phenylpyrazine-2-carbonitrile] | 
22 | 22 | 64 |  | Nc1cnc(-c2ccc3ncoc3c2)c(-c2ccccc2)n1 [Compound No. 1.35, 5-(benzo[d]oxazol-6-yl)-6-phenylpyrazin-2-amine] | 
23 |  |  | 13.1 | Cn1ccc(-c2nc(N)c(C#N)nc2-c2cc(Cl)c3ncccc3c2)n1 [Compound 1.309, 3-amino-6-(8-chloroquinolin-6-yl)-5-(1-methyl-1H-pyrazol-3-yl)pyrazine-2-carbonitrile] | IC50 [2]: 1.6 nM
24 | 0 | 24 |  | CN1CCN(c2nc(-c3ccc4ncccc4c3)c(-c3ccccc3)nc2N)CC1 [Compound No. 1.276] | 
25 | 80 | 86 |  | Nc1nc(-c2ccccc2)c(-c2ccc3ncccc3c2)nc1O [Compound No. 1.241, 3-amino-5-phenyl-6-(quinolin-6-yl)pyrazin-2-ol] | 
26 | 96 | 80 |  | NC(=O)c1nc(-c2ccc3ncccc3c2)c(-c2ccccc2)nc1N [Compound No. 1.272, 3-amino-5-phenyl-6-(quinolin-6-yl)pyrazine-2-carboxamide] | 
27 | 12 | 30 |  | Nc1cnc(-c2ccc3c(c2)CCCN3)c(-c2ccccc2)n1 [Compound No. 1.186, 6-phenyl-5-(1,2,3,4-tetrahydroquinolin-6-yl)pyrazin-2-amine] | 
28 | 77 | 81 |  | Nc1cnc(-c2ccc3ncsc3c2)c(-c2ccccc2)n1 [Compound No. 1.36, 5-(benzo[d]thiazol-6-yl)-6-phenylpyrazin-2-amine] | 
29 | 0 | 11 |  | Nc1nc(-c2ccccc2)c(-c2ccc3ncccc3c2)nc1N1CCOCC1 [Compound No. 1.275, 3-morpholino-6-phenyl-5-(quinolin-6-yl)pyrazin-2-amine] | 
30 |  | 100 | 12 | Cc1cccc(CNC(=O)c2nc(-c3ccc4ncccc4c3)c(-c3ccccc3)nc2N)n1 [Compound No. 1.273, 3-amino-N-((6-methylpyridin-2-yl)methyl)-5-phenyl-6-(quinolin-6-yl)pyrazine-2-carboxamide] | 
31 | 100 | 100 |  | Nc1cnc(-c2ccc3[nH]ncc3c2)c(-c2ccccc2)n1 [Compound No. 1.270, 5-(1H-indazol-5-yl)-6-phenylpyrazin-2-amine] | 
32 | 16 |  |  | Cc1ccn(-c2nc(N)cnc2-c2ccc3[nH]ncc3c2)n1 [Compound No. 1.287, 5-(1H-indazol-5-yl)-6-(3-methyl-1H-pyrazol-1-yl)pyrazin-2-amine] | inhibition at 0.001 µM [2]: 42%; inhibition at 0.01 µM [2]: 77%; inhibition at 0.1 µM [2]: 90%; inhibition at 1 µM [2]: 80%
